Results on two molecules are retold here after patent US20260061000A1, “COMPOSITIONS AND METHODS FOR THE TREATMENT OF CARDIAC ARRHYTHMIAS, INCLUDING ATRIAL FIBRILLATION” (Lankenau Institute for Medical Research, priority 2022, published 2026).

Several values for one entry are separate records, joined by “and”; a condition that tells them apart may be missing. Equal entries are not always repeated. Entries after “also recorded” stand apart in the source; their conditions may differ. Where only a bound is given, the exact number is not on record here.

One test deals with ventricles. Briefly: Electrophysiological parameters (APD, ERP, DTE) in ventricles of isolated arterially-perfused canine preparations. To be noted: CL 500 ms. On the procedure: (§1) Experiments were performed using isolated arterially-perfused canine preparations perfused with Tyrode's solution containing (in mM): NaCl 129, KCl 4, NaH2PO4 0.9, NaHCO3 20, CaCl2 1.8, MgSO4 0.5, glucose 5.5, insulin lunit/liter, bubelled with 95% O2 and 5% CO2. pH=7.4. Preparations consisting of the right atrium with a rim of right ventricle (1.0-2.0 cm) were isolated from the canine hearts (FIG. 1). The ostium of the right coronary artery was cannulated with polyethylene tubing, and the preparations were perfused with cold Tyrode's solution (8°-12° C.) containing 8.5 [K^+]0. With continuous coronary perfusion, all ventricular branches of the right coronary artery were immediately clamped with metal clips (1.5×10 mm; Kent Scientific Corp., Torrington, CT). The total time from excision of the heart to cannulation and perfusion of the artery was 4 minutes. […] coronary branches were ligated using silk thread. The preparations were placed in a temperature-controlled bath (8×6×4 cm) and perfused at a rate of 10-15 mL/min using Tyrode's solution. The temperature was maintained at 37° C.±0.5° C. (PolyStat; Cole Parmer Instrument, IL). The perfusate was delivered to the artery by a roller pump (MasterFlex L/S, Cole Parmer Instrument). An air trap was used to avoid bubbles in the perfusion line.
(§2) Transmembrane action potential (AP) recordings (sampling rate 41 kHz) were obtained from the right atrium and ventricle using floating glass microelectrodes (10-25 MΩ DC resistance). Glass microelectrodes were connected to a high-input impedance intracellular amplifier (Electro-705; World Precision Instruments, Sarasota, FL). A pseudo-electrocardiogram (ECG) was recorded using two electrodes consisting of Ag/AgCl half cells placed in the Tyrode's solution bathing the preparation, 1.0 to 1.2 cm from opposite ends of the atrial coronary-perfused preparations (FIG. 1). The signals were amplified, digitized, and analyzed (Cambridge Electronic Design, Cambridge, England). Effective refractory period (ERP) was measured by delivering premature stimuli after every 10th basic beat at a pacing cycle length (CL) of 500 ms. The diastolic threshold of excitation (DTE) was determined by increasing stimulus intensity in 0.01 mA steps starting from 0.1 mA, until a steady 1:1 activation was achieved. Post-repolarization refractoriness (PRR) was recognized when ERP exceeded an action potential duration at 90% repolarization (APD90) in the ventricle and action potential duration at 70% repolarization (APD70) in atria. Ventricular ERP coincides with APD90, whereas atrial ERP generally coincides with APD70.^4 The electrophysiological measurements were performed following at least 20 min of perfusion with flecainide and 5 min with elevated potassium concentrations. The electrophysiological measurements were obtained at a CL of 500 ms.

Another test concerns atria. Description: Electrophysiological parameters (APD, ERP, PRR, DTE) in atria of isolated arterially-perfused canine preparations. As for the experimental part:
as §1, §2

The test system of test [1] is acetylcholine-mediated AF. Description: AF cardioversion in canine acetylcholine-mediated AF model (isolated coronary-perfused right atrial preparations). Particulars: for AF cardioversion (atria cardioverted / tested): flecainide 1.5 μM. On the procedure: This investigation conforms with the Guide for Care and Use of Laboratory Animals. Hearts from purpose-bred adult male Beagle dogs (10-16 kg, 10-19 months old) were obtained from Envigo (Denver, PA). Dogs were sedated with ketamine (10 mg/kg, intramuscularly [IM]) and xylazine (2 mg/kg, IM). Prior to euthanasia with Euthasol solution (pentobarbital sodium and phenytoin sodium; 0.22 ml/kg, intravenously [IV]), heparin (human pharmaceutical grade, 1,000 U/kg, IV) was administered. The heart was then isolated via a left thoracotomy. Retrograde aortic perfusion of the hearts with ice-cold cardioplegic solution (modified Krebs-Henseleit solution [K-H]; 16 mM KCl) was immediately performed to clear the coronary vasculature of blood. The hearts were then placed in a sealed container containing ice-cold cardioplegic solution and transported to our institution via a private courier in an insulated package surrounded by icepacks.
as §1
A well-established acetylcholine (ACh)-mediated non-self-terminating (persistent) AF experimental model was used in the current study.^4 AF was induced by either delivering a single premature stimulus or by rapid pacing (CLs=40-80 ms, for 2-5 seconds). The efficacy and time course for flecainide to cardiovert AF (induced at 4 mM potassium) was studied at 4 mM (baseline) and at 5, 6, and 8 mM of potassium concentration ([K^+]0). Sustained AF (here defined as lasting >1 hour) was induced in 100% experiments in the presence of 4 mM [K^+]. 5-7 minutes after non-self-terminating AF was first introduced at 4 mM [K^+]0, flecainide was added to the Tyrode's perfusate containing either 4 mM [K^+]0 or with a concomitant increase in potassium concentration (to 5, 6, or 8 mM).
Additionally, the capability of elevated potassium (5, 6, and 8 mM) alone to terminate AF was investigated. In these experiments, sustained AF was first induced at 4 mM [K^+]0 and 5-7 minutes later potassium concentrations were increased (to 5, 6, or 8 mM). To mimic hypokalemia, AF termination efficacy of flecainide was tested at 3 mM [K^+]0. If AF was not terminated by the tested conditions in 45 minutes, the AF was considered as “non-terminating”. In the experiments in which AF was cardioverted by tested conditions tested, electrical re-induction of AF was attempted within 1-5 minutes after AF termination (≥5 attempts in ≥2 atrial locations).
Overall, 41 right atrioventricular preparations isolated from 41 canine hearts were used in the study, with 46 experiments investigating AF cardioversion and 11 experiments investigating electrophysiological parameters in atria and ventricles. […]

The test system of test [2] is acetylcholine-mediated AF. Briefly: Electrical re-induction of AF after AF termination in isolated canine right atrial preparations. On the procedure: A well-established acetylcholine (ACh)-mediated non-self-terminating (persistent) AF experimental model was used in the current study.^4 AF was induced by either delivering a single premature stimulus or by rapid pacing (CLs=40-80 ms, for 2-5 seconds). The efficacy and time course for flecainide to cardiovert AF (induced at 4 mM potassium) was studied at 4 mM (baseline) and at 5, 6, and 8 mM of potassium concentration ([K^+]0). Sustained AF (here defined as lasting >1 hour) was induced in 100% experiments in the presence of 4 mM [K^+]. 5-7 minutes after non-self-terminating AF was first introduced at 4 mM [K^+]0, flecainide was added to the Tyrode's perfusate containing either 4 mM [K^+]0 or with a concomitant increase in potassium concentration (to 5, 6, or 8 mM). Additionally, the capability of elevated potassium (5, 6, and 8 mM) alone to terminate AF was investigated. In these experiments, sustained AF was first induced at 4 mM [K^+]0 and 5-7 minutes later potassium concentrations were increased (to 5, 6, or 8 mM). To mimic hypokalemia, AF termination efficacy of flecainide was tested at 3 mM [K^+]0. If AF was not terminated by the tested conditions in 45 minutes, the AF was considered as “non-terminating”. In the experiments in which AF was cardioverted by tested conditions tested, electrical re-induction of AF was attempted within 1-5 minutes after AF termination (≥5 attempts in ≥2 atrial locations).

For a further test, the system named is ACh-mediated AF. Particulars: elevation of [K+]0 from 4 to 6-8 mM; isolated pig atria; cited from earlier work.
For another test, the system named is recent-onset AF. To be noted: flecainide via oral inhalation; patients with recent-onset AF; cited from earlier work.
[3] abbreviates: [K+]0 from 4 to 6 mM, CL 500 ms.
The mark [4] stands for this setting: flecainide 1.5 μM added at [K+]0 6 mM, CL 500 ms.
The mark [5] stands for this setting: flecainide at [K+]0 4 mM, CL 500 ms.
Where [6] appears, read: after cardioversion by flecainide and elevated [K+]0 (5-8 mM).
Setting [7] is: after cardioversion by flecainide at [K+]0 4 mM.

`[K+]` [[K^+]0]: the DTE in ventricles result in the test on ventricles (6 mM [K+]0 vs 4 mM) is “not significantly affected”. Also, in the test with ventricles ([K+]0 from 4 to 6 mM), the APD in ventricles entry was “significantly abbreviated” and the ERP in ventricles result was “significantly abbreviated”. For the same molecule, the DTE in atria entry in the test on atria (6 mM [K+]0 vs 4 mM, CL 500 ms) is given as “not significantly affected”. In addition, in the test on atria (setting [3]), the APD in atria result is “abbreviated”, the ERP in atria entry is “significantly prolonging” and the “Post-repolarization refractoriness (PRR)” value is reported as “atrial-selective induction”. Further, the “AF terminated, % of experiments / atria” value in test [1] (no flecainide, [K+]0 from 4 to 8 mM) was 100%. Besides, the “AF termination (atria terminated / tested)” value in test [1] (no flecainide, [K+]0 increased from 4 to 5 mM) was “did not terminate and 0/5 and did not cardiovert”. Further, the “AF termination (atria terminated / tested)” value in test [1] (no flecainide, [K+]0 increased from 4 to 6 mM) is recorded as 2/6. Further, the “AF termination (atria terminated / tested)” value in test [1] (no flecainide, [K+]0 increased from 4 to 8 mM) was 4/4. Also, the “Duration of re-induced AF” value in test [2] (6 mM [K+]0 alone, in one of two experiments) is recorded as 20 min. Also, in test [2] (8 mM [K+]0 alone), the “AF inducible after termination (atria)” value is recorded as 4/4 and the “Duration of re-induced AF episodes” value was not above 26 s. Moreover, the “AF/AT inducibility after termination” value in test [2] (two experiments in which 6 mM [K+]0 alone terminated AF) is given as “readily inducible in both”. Moreover, the “AF cardioversion (atria cardioverted / tested)” value in the test on ACh-mediated AF is 3/4.
Take `O=C(NCC1CCCCN1)c1cc(OCC(F)(F)F)ccc1OCC(F)(F)F` (stereo not shown) [flecainide]: the ERP in ventricle entry in the test with ventricles (flecainide 1.5 μM added at [K+]0 6 mM) was “prolongation”. In the test on ventricles (flecainide at [K+]0 4 mM), the APD in ventricles result is listed as “no significant change”. Besides, the “Depression of excitability, atria vs ventricles” value in the test with atria (combined flecainide and elevated [K+]0 (6 mM)) was “atrial predominant depression of excitability; also recorded: atrial preferential depression of excitability”. Besides, the ERP in atria entry was “much more pronounced in the atria” in the test with atria (setting [4]) and “substantial lengthening” in the test with atria (setting [5]). Moreover, the “Post-repolarization refractoriness (PRR)” value with atria (setting [4]) was “atrial predominant development”. The DTE entry in the test on atria (flecainide alone at [K+]0 4 mM, CL 500 ms) was “moderate atrial predominant increase”; in the test with atria (flecainide in the presence of 6 mM [K+]0, CL 500 ms), “large atrial-selective increase”. Moreover, the APD in atria result in the test with atria (setting [5]) is reported as “no significant change”. Further, the “AF cardioversion (atria cardioverted / tested)” value is listed as 1/6 in test [1] ([K+]0 3 mM (simulated hypokalemia)); “moderately effective” in test [1] ([K+]0 4 mM, ACh 0.5 μM); 3/6 in test [1] ([K+]0 4 mM, ACh 0.5 μM, listed as Flecainide); “highly effective” in test [1] ([K+]0 elevated to 5 mM); 5/5 in test [1] ([K+]0 elevated to 5 mM, listed as Flecainide); “highly effective” in test [1] ([K+]0 elevated to 6 mM). The “AF cardioversion (atria cardioverted / tested)” value in test [1] ([K+]0 elevated to 6 mM, listed as Flecainide) is recorded as 5/5; in test [1] ([K+]0 elevated to 8 mM), “highly effective”; in test [1] ([K+]0 elevated to 8 mM, listed as Flecainide) it was 4/4. For the same molecule, the “Time to conversion (time course of flecainide-mediated AF termination)” value in test [1] (flecainide, elevation of [K+]0 from 4 to 8 mM vs 4 mM) is recorded as “abbreviated”. The “AF/AT inducibility after cardioversion” value in test [2] (setting [6]) is “either not inducible or induced for a very brief episode; also recorded: either not inducible or induced for very brief episodes”. Further, the figures for the “Duration of re-induced AF/AT episodes” value in test [2] (setting [6]) and in test [2] (setting [7]) were less than 100 s and not above 300 s, respectively. Moreover, the “Duration of re-induced AF/AT episodes, in most cases” value in test [2] (after cardioversion by flecainide and elevated [K+]0 (5-8 mM), in most cases) is less than 10 s. In test [2] (setting [7]), the “AF or atrial tachycardia inducible after cardioversion (preparations)” value is 3/3. Also, the “Duration of re-induced AF episodes” value in test [2] (flecainide at 3 mM [K+]0 (hypokalemia)) is not above 1860 s. Further, the “AF re-induction after termination” value in test [2] (flecainide at 3 mM [K+]0 (hypokalemia), the only atria terminated) was “readily re-induced”. The “Patients restored to sinus rhythm” value in the test on recent-onset AF is “approximately 50%”.
